Source: patent US6075029A, “Xanthine modulators of metabolism of cellular P-450” (Cell Therapeutics, Inc., priority 1998, dated 2000)

Tests used:
P-450IA2 [1] = settings: Lillibridge et al.; cited from earlier work
P-4501A2 = target: T1, P-4501A2 (Homo sapiens, UniProt P05177); assay: Inhibition of P-450 mediated caffeine metabolism to paraxanthine in human liver microsomes; settings: for inhibition of P-450-mediated caffeine metabolism (in words): human liver microsomes, summary of Table 1; for activity at 0 h, 100 µM / activity at 5 min, 100 µM / activity at 20 min, 100 µM: human
T1 sequence (P05177 1-516): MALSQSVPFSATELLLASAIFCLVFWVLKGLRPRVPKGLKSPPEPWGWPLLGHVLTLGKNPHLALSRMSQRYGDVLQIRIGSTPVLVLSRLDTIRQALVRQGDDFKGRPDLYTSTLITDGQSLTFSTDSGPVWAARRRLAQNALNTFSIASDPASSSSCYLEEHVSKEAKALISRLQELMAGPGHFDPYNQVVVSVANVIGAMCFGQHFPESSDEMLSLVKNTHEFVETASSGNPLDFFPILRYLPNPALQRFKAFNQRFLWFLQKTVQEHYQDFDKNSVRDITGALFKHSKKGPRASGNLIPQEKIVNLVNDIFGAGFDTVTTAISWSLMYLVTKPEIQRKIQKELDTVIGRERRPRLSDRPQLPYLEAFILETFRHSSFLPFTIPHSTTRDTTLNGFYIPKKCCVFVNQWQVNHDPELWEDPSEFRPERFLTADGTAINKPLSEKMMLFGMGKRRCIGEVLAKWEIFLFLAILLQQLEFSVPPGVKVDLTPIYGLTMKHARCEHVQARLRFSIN
Description: The model system directly measures inhibition of P-4501A2-mediated metabolism in the physiological environment of human liver microsomes. Measurement of drug metabolism in a microsome system is directly predictive of liver metabolism in vivo. Thus, microsome data can be used to estimate the in vivo circulating half-life of compounds that are primarily metabolized in the liver.
Microsomes were prepared by standard techniques from four human livers. […] Three sets of enantiomers, CT2408 R&S, CT2410 R&S, and CT2412 R&S, were evaluated for inhibition of caffeine metabolism to paraxanthine by P-450.
Briefly, the inventive compounds were preincubated in microsomes with NADPH at concentrations of 100 μM for 0, 5, and 20 minutes. Samples containing only buffer, LSF, or furafylline were used as controls.
At the end of the preincubation period, the samples were diluted in a solution of NADPH and caffeine. The samples then were incubated for twenty minutes. Hydroxyethyl theophylline was added as an internal standard, and the samples were analyzed for paraxanthine via HPLC. Decreased paraxanthine formation is indicative of inhibition of P-450-mediated caffeine metabolism.
Incubation conditions and analysis of paraxanthine
To 200 μL microsomal suspension (HL-124; 20 mg/mL protein, P-450 specific activity 0.24 nmol/mg protein) and 100 μL 8.0 mM NADPH (Sigma, tetrasodium salt) in 100 mM phosphate buffer pH 7.4 preincubated for 2 minutes at 37° were added 100 μL of test compound solution (400 μM) in phosphate buffer ([…], pH 7.4). The solution then was incubated at 37° with agitation for 0, 5, and 20 minutes at which times 100 μL of the solution was transferred to another tube containing 200 μL 12.5 mM caffeine and 200 μL 5.0 mM NADPH which had been warmed at 37° for 2 minutes. The suspensions then were incubated for 20 minutes, 200 μL acetonitrile added, and the tubes placed on ice.
After all incubations were finished, 50 μL β-hydroxyethyl theophylline (50 μg/mL, HET) was added as an internal standard. Paraxanthine standards were prepared in 0.5 mL phosphate buffer containing 2.0 mg boiled microsomal protein ranging in concentration from 0.433 to 13.9 nmol/sample.
The suspensions then were extracted for 5 minutes with 7.0 mL methylene chloride (Fisher Optima grade), centrifuged at 3,000 g and the aqueous layer aspirated to waste. An aliquot of the organic (5.5 mL) was then transferred to another tube, evaporated to dryness under nitrogen at 30°, and reconstituted in 20% methanol/water.
Thirty microliters of reconstituted sample were then applied to an Hewlett Packard 1050 HPLC system equipped with a Rainin Microsorb™ 4.6×100 mm column with 3 μm C-18 packing. Mobile phase was maintained at 1.0 mL/min and changed from 2:13:85 to 2:20:78 acetonitrile:methanol:25 mM phosphate buffer, pH 5 over 10 minutes, the column was then washed by increasing the acetonitrile to 20% prior to re-equilibration for the next injection. Column eluent was monitored at 285 nm and paraxanthine, HET, and caffeine respectively eluted at 5.3, 6.6, and 9.8 minutes.

[2] = human, in vivo; cited from earlier work
LSF metabolism = assay: Co-administration of furafylline with LSF: circulating half-life of LSF; format: in vivo; settings: co-administered with LSF
caffeine metabolism = settings: cited from earlier work
P-450IA2 [3] = settings: liver; Sesardic et al.; cited from earlier work

## Cn1c(=O)c2c(ncn2C)n(C)c1=O [caffeine, 1,3,7-trimethylxanthine]
P-450IA2 [1]
  site of metabolism: P-450IA2 mediates demethylation of caffeine at the N3 position of the xanthine ring

## Cc1nc2c([nH]1)c(=O)n(CCCCC(C)O)c(=O)n2C (stereo not drawn) [CT2408 R&S, 1-(5-Hydroxyhexyl)-3,8-dimethylxanthine]
P-4501A2
  inhibition of P-450-mediated caffeine metabolism (in words): showed similar inhibition

## O=C1CC[C@@H](N2C(=O)c3ccccc3C2=O)C(=O)N1 [thalidomide R-isomer]
[2]
  sedative activity: desired sedative activity resided in the R-isomer

## CC(=O)CCCCn1c(=O)c2c(ncn2C)n(C)c1=O [PTX]
P-450IA2 [1]
  site of metabolism: primary metabolites of LSF and PTX result from modification of the N1 substituent, not the N3 substituent

## Cc1nc2c([nH]1)c(=O)n(CCCC[C@H](C)O)c(=O)n2C [CT2408S, (S)-1-(5-Hydroxyhexyl)-3,8-dimethylxanthine]
P-4501A2; liver microsomes
  activity at 0 h, 100 µM: 97.2%
  activity at 5 min, 100 µM: 71%
  activity at 20 min, 100 µM: 41.8%

## Cc1nc2c([nH]1)c(=O)n(CCCC[C@@H](C)O)c(=O)n2Cc1ccco1 [CT2412R, (R)-3-(2-Furylmethyl)-1-(5-hydroxyhexyl)-8-methylxanthine]
P-4501A2; liver microsomes
  activity at 0 h, 100 µM: 101%
  activity at 5 min, 100 µM: 82.8%
  activity at 20 min, 100 µM: 56.3%

## Cc1nc2c(c(=O)n(CCCC[C@H](C)O)c(=O)n2C)n1C [CT2410S, 1-(5-Hydroxyhexyl)-3,7,8-trimethylxanthine]
P-4501A2; liver microsomes
  activity at 0 h, 100 µM: 101%
  activity at 5 min, 100 µM: 91%
  activity at 20 min, 100 µM: 83.5%

## C[C@@H](O)CCCCn1c(=O)c2c(ncn2C)n(C)c1=O [LSF, (R)-1-(5-Hydroxyhexyl)-3,7-dimethylxanthine, reference compound]
P-4501A2
  inhibition of P-450-mediated caffeine metabolism (in words): Neither CT2410 (1-(5-Hydroxyhexyl)-3,7,8-trimethylxanthine) nor LSF ((R)-1-(5-Hydroxyhexyl)-3,7-dimethylxanthine) had any inhibitory effect
P-4501A2; liver microsomes
  activity at 0 h, 100 µM: 101%
  activity at 5 min, 100 µM: 91%
  activity at 20 min, 100 µM: 85.8%
P-450IA2 [1]
  site of metabolism: primary metabolites of LSF and PTX result from modification of the N1 substituent, not the N3 substituent

## Cc1nc2c([nH]1)c(=O)n(C)c(=O)n2Cc1ccco1 [FRF, 1,8-dimethyl-3-(2'furfuryl)-methylxanthine]
P-4501A2; microsomes
  activity at 0 h, 100 µM: 36.8%
  activity at 5 min, 100 µM: 13.9%
  activity at 20 min, 100 µM: 10.1%
LSF metabolism
  circulating half-life of LSF on co-administration: increase the circulating half-life of the methylxanthine compound LSF
Caffeine metabolism; by inhibiting N3 demethylation
  circulating half-life of caffeine: increases the circulating half-life of caffeine
Caffeine metabolism; clinical trials, Tarrus et al.
  serum caffeine levels in patients treated: elevated serum caffeine levels
P-450IA2 [3]
  inhibition of P-450IA2 / N3 demethylation of caffeine: inhibiting the P-450 isozyme, P-450IA2, which catalyzes N3 demethylation of caffeine in the liver

## Cc1nc2c([nH]1)c(=O)n(CCCC[C@@H](C)O)c(=O)n2C [CT2408R, (R)-1-(5-Hydroxyhexyl)-3,8-dimethylxanthine]
P-4501A2; liver microsomes
  activity at 0 h, 100 µM: 95.2%
  activity at 5 min, 100 µM: 73.9%
  activity at 20 min, 100 µM: 46.6%

## Cc1nc2c(c(=O)n(CCCC[C@@H](C)O)c(=O)n2C)n1C [CT2410R, 1-(5-Hydroxyhexyl)-3,7,8-trimethylxanthine]
P-4501A2; liver microsomes
  activity at 0 h, 100 µM: 92.8%
  activity at 5 min, 100 µM: 87.8%
  activity at 20 min, 100 µM: 88.3%

## Cc1nc2c([nH]1)c(=O)n(CCCCC(C)O)c(=O)n2Cc1ccco1 (stereo not drawn) [CT2412 R&S, 3-(2-furylmethyl)-1-(5-hydroxyhexyl)-8-methylxanthine]
P-4501A2
  inhibition of P-450-mediated caffeine metabolism (in words): showed similar inhibition

## Cc1nc2c(c(=O)n(CCCCC(C)O)c(=O)n2C)n1C (stereo not drawn) [CT2410, 1-(5-Hydroxyhexyl)-3,7,8-trimethylxanthine]
P-4501A2
  inhibition of P-450-mediated caffeine metabolism (in words): Neither CT2410 (1-(5-Hydroxyhexyl)-3,7,8-trimethylxanthine) nor LSF ((R)-1-(5-Hydroxyhexyl)-3,7-dimethylxanthine) had any inhibitory effect

## CC(C(=O)O)c1ccc2oc(-c3ccc(Cl)cc3)nc2c1 (stereo not drawn) [benoxaprofen]
[2]
  toxic / side effects: lethal side effects

## O=C1CC[C@H](N2C(=O)c3ccccc3C2=O)C(=O)N1 [thalidomide S-isomer]
[2]
  toxic / side effects: teratogen, causing the birth defects in babies born to mothers using this drug

## CC[C@H](CO)NCCN[C@H](CC)CO [ethambutol R,R-enantiomer]
[2]
  toxic / side effects: can cause blindness

## Cc1nc2c([nH]1)c(=O)n(CCCC[C@H](C)O)c(=O)n2Cc1ccco1 [CT2412S, (S)-3-(2-Furylmethyl)-1-(5-hydroxyhexyl)-8-methylxanthine]
P-4501A2; liver microsomes
  activity at 0 h, 100 µM: 98.7%
  activity at 5 min, 100 µM: 75.6%
  activity at 20 min, 100 µM: 51.7%
